{"source": "patent US9708314B2", "about": "“Heterocyclic amide compound” (NISSAN CHEMICAL INDUSTRIES, LTD., priority 2013, dated 2017)"}
{"test_system": "directly sowed Oryza sativa", "test": "Test Example 3: effect on crop by application to foliage (Wagner pot, water depth 0.1-0.5 cm)", "type": "in vivo", "conditions": "Nineteenth Table; application to foliage; application herbicide amount 320 g/ha", "in_short": "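Visual 0–5 rating of herbicidal ratio, taken 3 weeks after foliar spray of a diluted emulsion formulation at rates expressed as g/ha. Plants had been sown in alluvial soil under 0.1–0.5 cm water and grown 14 days at 25–30 °C under glass before application.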"}
{"smiles": "COCc1nnc2c(C(=O)Nc3nnnn3C)ccc(C(F)(F)F)n12", "note": "[2-010, 3-(Methoxymethyl)-N-(1-methyl-1H-tetrazol-5-yl)-5-(trifluoromethyl)-[1,2,4]triazol o[4,3-a]pyridine-8-carboxamide]", "b (effect on crop grade)": "5 (Herbicidal ratio of 90% or more (almost completely withered))"}
{"smiles": "Cn1nnnc1NC(=O)c1ccc(C(F)(F)F)n2c(C3=NOC(C)(C)C3)nnc12", "note": "[2-028]", "b (effect on crop grade)": "5 (Herbicidal ratio of 90% or more (almost completely withered))"}
{"smiles": "CSCc1nnc2c(C(=O)Nc3nnnn3C)ccc(C(F)(F)F)n12", "note": "[2-029]", "b (effect on crop grade)": "5 (Herbicidal ratio of 90% or more (almost completely withered))"}
{"smiles": "Cn1nnnc1NC(=O)c1ccc(C(F)(F)F)n2c(CSCC(F)(F)F)nnc12", "note": "[2-030]", "b (effect on crop grade)": "5 (Herbicidal ratio of 90% or more (almost completely withered))"}
{"smiles": "CC[S+]([O-])c1nnc2c(C(=O)Nc3nnnn3C)ccc(C(F)(F)F)n12", "note": "(centres unmarked) [2-031]", "b (effect on crop grade)": "5 (Herbicidal ratio of 90% or more (almost completely withered))"}
{"smiles": "CC(C)[S+]([O-])c1nnc2c(C(=O)Nc3nnnn3C)ccc(C(F)(F)F)n12", "note": "(centres unmarked) [2-032]", "b (effect on crop grade)": "5 (Herbicidal ratio of 90% or more (almost completely withered))"}
{"smiles": "Cn1nnnc1NC(=O)c1ccc(C(F)(F)F)n2c(C[S+](C)[O-])nnc12", "note": "(centres unmarked) [2-033]", "b (effect on crop grade)": "5 (Herbicidal ratio of 90% or more (almost completely withered))"}
{"test_system": "not given", "test": "not given", "conditions": "not given", "units": {"melting point": "°C"}}
{"smiles": "COCc1nnc2c(C(=O)Nc3nnnn3C)ccc(C(F)(F)F)n12", "note": "[2-010, 3-(Methoxymethyl)-N-(1-methyl-1H-tetrazol-5-yl)-5-(trifluoromethyl)-[1,2,4]triazol o[4,3-a]pyridine-8-carboxamide]", "melting point": "205 to 209"}
